Test system: volar forearm of panellists with dry skin
Assay: Skin Moisturization (Hydration), Corneometer CM 825
Assay type: in vivo
Settings: 15% active, baseline 46.75
Experimental: Skin Moisturization (Hydration). Aqueous solutions (along with formulated lotions) were applied to the volar forearm of panellists with dry skin. Solutions tested contained between 2.5 and 15% active levels of Hydroxyalkylurea and various moisturizing agents. The various individual moisturizing agents were also used in combination with Hydroxyalkylurea and the relative moisture contents in the skin were compared. Moisture levels were measured using a Corneometer® CM 825 (available from CK Industries) prior to and at various time intervals after application of forty microliters of each sample (Temperature ˜21° C., Relative Humidity ˜35%).

SMILES: NC(=O)NCCO [HAU, N-2-hydroxyethylurea]
- Relative Skin Moisture Content (5 min after application): 56.56
- Relative Skin Moisture Content (30 min after application): 60.00
- Relative Skin Moisture Content (1 hr after application): 62.95
- Relative Skin Moisture Content (2 hr after application): 62.00

— US7816310B2, “Increased moisturization efficacy using hydroxyalkylurea and ammonium lactate” (Akzo Nobel N.V., priority 2003, dated 2010)
